Measured values taken from patent publication US7205261B2, “Use of certain N-acylethanolamines to achieve ethylene- and cytokinin-like effects in plants and fungi” (Nutra-Park, Inc., priority 2002, dated 2007).
Where two headings read alike, the source gives them in different places.

Assays:
[1] = system: Raphanus sativus L. cv. Cherry Belle cotyledons; assay: Radish cotyledon bioassay (expansion growth and chlorophyll accumulation); assay type: in vivo; conditions: for Change in fresh weight: continuous illumination, 25° C., ten cotyledons; for activity at 20 µg/mL: Raphanus sativus, read-out: Change in fresh weight, % of control
Excerpt: Radish cotyledon bioassay: This bioassay using Raphanus sativus L. cv. Cherry Belle cotyledons was developed by Letham, DS (Physiologia Plantarum 25, 391–396, 1971, incorporated by reference in its entirety) to evaluate the efficacy of cytokinin on cell enlargement. Success using this assay is not restricted to radish. […] In addition to their effect on cell division, cytokinin plays a major role in driving cell enlargement. Compounds in this class of phytohormone and with cytokinin activity also help maintain photosynthetic activity and productivity and abolish proteolytic activity. In cotyledon leaf systems, a requirement for cytokinin is critical and removal of the roots (i.e. the presumed source of cytokinin) renders the cotyledon leaves unable to expand. Exposure to cytokinin (0.02–22 μg/ml) results in a dramatic increase in fresh weight of cotyledons within 72 hours. This effect is not observed with either gibberellin or auxin and is usually delayed or inhibited by abscisic acid and the ethylene precursor, 1-aminocyclopropane-1-carboxylic acid (ACC). […] Thus, the mode of action of cytokinin in this system appears to be similar to that of indole-3-acetic acid (IAA) in auxin-induced stem elongation, a process that depends on an increase in the mechanical extensibility of the cell wall. However, cytokinin antagonizes IAA-mediated cell elongation and appears to do so by promoting ethylene production. Furthermore, cytokinin-induced cell expansion is not usually accompanied by proton (H^+) extrusion and no change in plasma membrane ATPase activity is evident.
Seeds of Raphanus sativus L. cv. Cherry-Belle were germinated in darkness at 24° C. for 36 h in Petri dishes containing filter paper wetted with distilled water. The smaller of the two cotyledons was excised, the fresh weight determined, and 10 cotyledons placed adaxial side down on filter paper in Petri dishes containing 10 ml of KPO4 buffer (2 mM, pH 6.0) and the compounds to be tested at 20 mg/l. […] Chlorophyll content was determined after extraction of tissue into 80% ethanol (containing butylated hydroxytoluene (BHT) 10 mg/l) using the equations Chl a=(13.95A663)−(6.88A647) and Chl b=(24.96A652)−(7.32A663) as described by Lichtenthaler, HK, Methods in Enzymology 148: 350–382, 1987, incorporated by reference in its entirety. FIG. 6 illustrates the difference in cotyledon size in response to the cytokinin kinetin.

[2] = system: tomato variety FL47 mature green tomatoes; assay: Tomato bioassay (spray application or vacuum infiltration of harvested mature green tomatoes, ripening judged by colour); assay type: in vivo; conditions: 5 to 7 days after treatment, FIGS. 2-5
Method: Tomato bioassay: NAE solutions containing 20 ppm or 500 ppm of NAE were used to treat harvested tomatoes as described below. The solutions were prepared by dispersing a solid NAE compound in water through sonication.
Egg LPE was purchased from Avanti Polar Lipids (Alabaster, Ala.). Egg LPE solutions containing 20 ppm or 500 ppm LPE were used as positive controls in the assays described below. The solutions were prepared by dispersing LPE into water through sonication or aggressive agitation.
The tomatoes used in this study were tomato variety FL47 (cultivar), 6×6 mature green tomatoes of good quality MG3–4 ([…]: no apparent external change from green to pink). The tomatoes were purchased from West Coast Tomato (Palmetto, Fla.) and Dimare Tomato (Homestead, Fla.).
The system used for classifying tomato mature stages is as the follows: Green (Stage 1)—“Green” means that the surface of the tomato is completely green in color. The shade of green may vary from light to dark. Breakers (Stage 2)—“Breakers” means there is a definite “break” in color from green, to tannish-yellow, pink or red on not more than 10% of the surface. […] Red (R) (Stage 6)—“Red” means that more than 90% of the surface, in the aggregate, is red.
Locules contain hard, white substance. […] Seeds are forming and are white. […] Seeds are fully formed and are turning from white to beige. MG4-Fruit are softening a little but still completely green on the outside. Inside locular gel is completely formed with hints of pink coloration in the columella tissue. Seeds are dark beige to light brown.
In spray application bioassays, the tomatoes were placed in 100° F. water for 90 seconds, after which the tomatoes were removed from water and placed stem scar up onto a sheet of plastic. An NAE solution or LPE solution was sprayed onto the tomatoes at 30 psi using a flat fan tip situated approximately 8 to 10 inches above the tomatoes. The tomatoes were air dried and placed on a sheet of white paper with stem scar down under consistent environmental conditions. Five to seven days later, the ripening of the tomatoes were determined by visual observation of the color of the tomatoes.
In vacuum infiltration bioassay, each tomato was placed on top of a vacuum bell jar platform with stem scar facing up. 0.5 ml of NAE solution or LPE solution was placed onto stem scar and the glass bell jar lid was lowered onto the jar platform. The vacuum was started and the air escaped from the interior of the tomato causing the NAE solution or the LPE solution on the stem scar to bubble. After a preset time period, the air inlet was opened slowly to release vacuum in the bell jar. […] Five to seven days later, the ripening of the tomatoes were determined by visual observation of the color of the tomatoes.

maize roots = assay: Corn root bioassay (ethylene production by maize roots); assay type: in vivo, Zea mays L.; conditions: 20 mg/l; for activity at 20 µg/mL: Zea mays, read-out: Ethylene, % of control
Method: Corn root bioassay: It is well established that roots of Zea mays produce ethylene when exposed to a variety of stresses (for review, see Morgan, PW and Drew, MC, Physiologia Plantarum 100: 620–630, 1997). Mechanical impedance and hypoxia both induce ethylene formation and usually as early as 1 hour after exposure. In response to ethylene treatment, maize roots show decreased expansion and elongation, a high incidence of cell death and the formation of aerenchyma tissue—particularly evident when roots are exposed to hypoxic conditions (Drew, MC et al., Trends in Plant Science 5: 123–127, 2000, Morgan and Drew 1997).
Seeds of Zea mays L. were sown in flats of Perlite, covered with a layer of vermiculite, and irrigated daily with water and/or 1/10 Hoagland solution. Seedlings were cultivated under continuous illumination at 22–25° C. and used when 7 d old. Seedlings were removed from the Perlite and washed under running tap water. Seedlings were allowed to acclimate in water and/or 1/10 Hoagland solution for several hours before being transferred to Falcon tubes containing the test compounds (all 20 mg/l) prepared in 1/10 Hoagland solution. […] Roots were then transferred to gas-tight tubes each containing 200 μl of water. The tubes were sealed and incubated at 26° C. for 1–2 h in darkness before gas samples were drawn from the incubation tubes using a 1 ml syringe and assayed by gas chromatography (Romera, FJ et al. (1999) Annals of Botany 83, 51–55).

[3] = Table 3, 48 h incubation, 20 mg/l
[4] = summary statement in the description

| SMILES | Chlorophyll a/b ([1]; Experiment 1, 20 mg/l, 72 h) | Change in fresh weight ([1]; Experiment 1, 20 mg/l, 72 h) [mg] | Chlorophyll (mg/g FW) a + b ([1]; Experiment 2, 20 mg/l, 48 h) [mg/g FW] | Chlorophyll (μg/cotyledon) a + b ([1]; Experiment 2, 20 mg/l, 48 h) [μg/cotyledon] | Chlorophyll a/b ([1]; Experiment 2, 20 mg/l, 48 h) | Change in fresh weight ([1]; Experiment 2, 20 mg/l, 48 h) [mg] | activity at 20 µg/mL ([1]; Experiment 1, 20 mg/l, 72 h) [%] | activity at 20 µg/mL ([1]; Experiment 2, 20 mg/l, 48 h) [%] | chlorophyll content per unit mass (in words) [1, 3] | chlorophyll per cotyledon (in words) [1, 3] | hormone-like activity with respect to expansion growth (in words) [1, 3] | cytokinin-like activities (summary of the examples) [1, 4] | ethylene-like activities (summary of the examples) [1, 4] | number of ripened tomatoes compared to the control group ([2]; sprayed with 500 ppm) | number of ripened tomatoes compared to the control group ([2]; vacuum infiltrated with 20 ppm) | activity at 20 µg/mL (maize roots; experiment 1, 72 h) [%] | activity at 20 µg/mL (maize roots; experiment 2, 36 h) [%] | Ethylene (maize roots; experiment 2, 36 h illumination, roots incubated 2 h in darkness at 24° C.) [pmol/g FW/h] |
| --- | --- | --- | --- | --- | --- | --- | --- | --- | --- | --- | --- | --- | --- | --- | --- | --- | --- | --- |
| CCCCCCCCCC(=O)NCCO [NAE-10:0, N-Decanoyl-2-aminoethanol] | 1.5 | 10.34 ± 3.28 | 1.41 | 22.57 | 1.8 | 11.56 ± 2.16 | 74 | 143 | decreased chlorophyll content per unit mass | increased chlorophyll per cotyledon | cytokinin-like activity | cytokinin-like activities | ethylene-like activities | higher number of ripened tomatoes | higher number of ripened tomatoes | 124 | 115 | 33.02 ± 9.63 |
| CCCCCCCCCCCCCC(=O)NCCO [NAE-14:0, N-Tetradecanoyl-2-aminoethanol] |  |  | 1.90 | 23.41 | 1.8 | 7.91 ± 1.34 |  | 98 |  |  |  | cytokinin-like activities |  | higher number of ripened tomatoes | higher number of ripened tomatoes |  |  |  |
